Key:
[1] = target: T1, BRD4 bromo domain 2 [BRD4(2)] (Homo sapiens, UniProt O60885); assay: BRD4/acetylated peptide H4 binding assay (TR-FRET), BRD4 bromo domain 2; conditions: inhibition of BRD4(2)/Ac-H4 peptide interaction
T1 construct: N-terminally His6-tagged BRD4(2) (amino acids 357-445); made in house; host or cells: E. coli
Source text: (§1) Protein-Protein Interaction Assay: BRD4/Acetylated Peptide H4 Binding Assay
To assess the BRD4(2) binding strength of the substances described in this application, the ability thereof to inhibit the interaction between BRD4(2) and acetylated histone H4 in a dose-dependent manner was quantified.
(§2) For this purpose, a time-resolved fluorescence resonance energy transfer (TR-FRET) assay was used, which measures the binding between N-terminally His6-tagged BRD4(2) (amino acids 357-445) and a synthetic acetylated histone H4 (Ac-H4) peptide with sequence SGRGK(Ac)GGK(Ac)GLGK(Ac)GGAK(Ac)RHRKVLRDNGSGSK-biotin. The recombinant BRD4(2) protein produced in-house according to Filippakopoulos et al., Nature, 2010, 468:1119-1123 and Cell, 2012, 149:214-231, was expressed in E. coli and purified by means of (Ni-NTA) affinity and (Sephadex G-75) size exclusion chromatography. The Ac-H4 peptide can be purchased, for example, from Biosyntan (Berlin, Germany).
(§3) In the assay, typically 11 different concentrations of each substance (0.1 nM, 0.33 nM, 1.1 nM, 3.8 nM, 13 nM, 44 nM, 0.15 μM, 0.51 μM, 1.7 μM, 5.9 μM and 20 μM) were analysed as duplicates on the same microtitre plate. For this purpose, 100-fold concentrated solutions in DMSO were prepared by serial dilutions (1:3.4) of a 2 mM stock solution into a clear, 384-well microtitre plate (Greiner Bio-One, Frickenhausen, Germany). From this, 50 nl were transferred into a black test plate (Greiner Bio-One, Frickenhausen, Germany). The test was started by the addition of 2 μl of a 2.5-fold concentrated BRD4(2) solution (final concentration typically 100 nM in the 5 μl of reaction volume) in aqueous assay buffer [50 mM HEPES pH 7.5, 50 mM sodium chloride (NaCl); 50 mM potassium fluoride (KF); 0.25 mM CHAPS and 0.05% serum albumin (BSA)] to the substances in the test plate. This was followed by a 10-minute incubation step at 22° C. for the pre-equilibration of putative complexes between BRD4(2) and the substances. Subsequently, 3 μl of a 1.67-fold concentrated solution (in assay buffer) consisting of Ac-H4 peptide (83.5 nM) and TR-FRET detection reagents [83.5 nM anti-6His-XL665 (Cisbio Bioassays, Codolet, France) and 12.52 nM streptavidin-Eu), (Perkin Elmer, #W1024)] in assay buffer were added.
(§4) The mixture was then incubated in the dark at 22° C. for one hour and then at 4° C. for at least 3 hours and for no longer than overnight. The formation of BRD4(2)/Ac-H4 complexes was determined by the measurement of the resonance energy transfer from the streptavidin-Eu chelate to the anti-6His-XL665 antibody present in the reaction. For this purpose, the fluorescence emission was measured at 620 nm and 665 nm after excitation at 330-350 nm in a TR-FRET measuring instrument, for example a Rubystar or Pherastar (both from BMG Lab Technologies, Offenburg, Germany) or a Viewlux (Perkin-Elmer). The ratio of the emissions at 665 nm and at 622 nm was taken as an indicator of the amount of BRD4(2)/Ac-H4 complexes formed.
(§5) The data (ratios) obtained were normalized, with 0% inhibition corresponding to the mean from the measurements for a set of controls (typically 32 data points) in which all the reagents were present. In these, in place of test substances, 50 nl of DMSO (100%) were used. Inhibition of 100% corresponded to the mean from the measurements for a set of controls (typically 32 data points) in which all the reagents except BRD4(2) were present. The IC50 was determined by regression analysis based on a 4-parameter equation (minimum, maximum, IC50, Hill; Y=max+(min−max)/(1+(X/IC50)Hill)).

[2] = target: T2, BRD4 bromo domain 1 [BRD4(1)] (Homo sapiens, UniProt O60885); assay: BRD4/acetylated peptide H4 binding assay (TR-FRET), BRD4 bromo domain 1; conditions: inhibition of BRD4(1)/Ac-H4 peptide interaction
T2 construct: N-terminally His6-tagged BRD4(1) (amino acids 67-152); made in house; host or cells: E. coli
Source text: as §1
To assess the BRD4(1) binding strength of the substances described in this application, the ability thereof to inhibit the interaction between BRD4(1) and acetylated histone H4 in a dose-dependent manner was quantified.
as §2, with “BRD4(1)” for “BRD4(2)”, “67-152)” for “357-445)”, “GRGK(Ac)GGK(Ac)GLGK(Ac)GGAK(Ac)RHGSGSK-biotin.” for “SGRGK(Ac)GGK(Ac)GLGK(Ac)GGAK(Ac)RHRKVLRDNGSGSK-biotin.”
as §3, with “concentrated BRD4(1)” for “concentrated BRD4(2)”, “typically 10” for “typically 100”, “chloride (NaCl),” for “chloride (NaCl); 50 mM potassium fluoride (KF);”, “between BRD4(1)” for “between BRD4(2)”, “substances.” for “substances. Subsequently, 3 μl of a 1.67-fold concentrated solution (in assay buffer) consisting of Ac-H4 peptide (83.5 nM) and TR-FRET detection reagents [83.5 nM anti-6His-XL665 (Cisbio Bioassays, Codolet, France) and 12.52 nM streptavidin-Eu), (Perkin Elmer, #W1024)] in assay buffer were added.”
as §4, with “BRD4(1)/Ac-H4” for “BRD4(2)/Ac-H4”, “cryptate” for “chelate”
as §5, with “BRD4(1)” for “BRD4(2)”

## COCCN1c2nc(Nc3cccc(C(=O)NC4CCN(C)CC4)c3)ccc2N(C)C(=O)[C@H]1C (stereo in doubt) [Example 119, 3-{[(3R)-4-(2-methoxyethyl)-1,3-dimethyl-2-oxo-1,2,3,4-tetrahydropyrido[2,3-b]pyrazin-6-yl]amino}-N-(1-methylpiperidin-4-yl)benzamide]
[1]
  IC50: 428 nM
[2]
  IC50: 742 nM

## COc1ccc(Nc2ccc3c(n2)N(C2CCOCC2)[C@H](C)C(=O)N3C)cc1C(=O)NC1CCC(N2CCC(F)(F)CC2)CC1 (some centres unmarked) [Example 89]
[1]
  IC50: 497 nM
[2]
  IC50: 399 nM

## COCCN1c2nc(Nc3cccc(C(=O)N4CCN(C)CC4)c3)ccc2N(C)C(=O)[C@H]1C (stereo in doubt) [Example 117, (3R)-4-(2-methoxyethyl)-1,3-dimethyl-6-({3-[(4-methylpiperazin-1-yl)carbonyl]phenyl}amino)-3,4-dihydropyrido[2,3-b]pyrazin-2(1H)-one]
[1]
  IC50: 434 nM
[2]
  IC50: 489 nM

## CC(C)N1c2nc(Nc3cccc(C(=O)NC4CCN(C)CC4)c3)ccc2N(C)C(=O)[C@H]1C [Example 94, 3-{[(3R)-4-isopropyl-1,3-dimethyl-2-oxo-1,2,3,4-tetrahydropyrido[2,3-b]pyrazin-6-yl]amino}-N-(1-methylpiperidin-4-yl)benzamide]
[1]
  IC50: 115 nM
[2]
  IC50: 467 nM

## C[C@@H]1C(=O)N(C)c2ccc(Nc3cccc(S(=O)(=O)N(C)C)c3)cc2N1C1CCN(C(=O)OC(C)(C)C)CC1 [Example 68, tert-butyl 4-[(2R)-7-{[3-(dimethylsulphamoyl)-phenyl]amino}-2,4-dimethyl-3-oxo-3,4-dihydroquinoxalin-1(2H)-yl]piperidine-1-carboxylate]
[1]
  IC50: 76 nM
[2]
  IC50: 433 nM

## COc1c(Nc2ccc3c(n2)N(C2CCOCC2)[C@H](C)C(=O)N3C)cccc1C(=O)NC1CCN(C)CC1 [Example 103, 3-{[(3R)-1,3-dimethyl-2-oxo-4-(tetrahydro-2H-pyran-4-yl)-1,2,3,4-tetrahydropyrido[2,3-b]pyrazin-6-yl]amino}-2-methoxy-N-(1-melhylpiperidin-4-yl)benzamide]
[1]
  IC50: 518 nM
[2]
  IC50: 810 nM

## C[C@@H]1C(=O)N(C)c2ccc(Nc3cccc(S(=O)(=O)N4CC5(CCC5)C4)c3)nc2N1C1CCN(C(=O)OC(C)(C)C)CC1 [Example 60, tert-butyl 4-[(3R)-6-{[3-(2-azaspiro[3.3]hept-2-ylsulphonyl)phenyl]-amino}-1,3-dimethyl-2-oxo-2,3-dihydropyrido[2,3-b]pyrazin-4(1H)-yl]piperidine-1-carboxylate]
[1]
  IC50: 265 nM
[2]
  IC50: 200 nM

## COCCN1c2nc(Nc3cccc(S(=O)(=O)N4CCOCC4)c3)ccc2N(C)C(=O)[C@@H]1C (stereo in doubt) [Example 112, (3S)-4-(2-methoxyethyl)-1,3-dimethyl-6-{[3-(morpholin-4-ylsulphonyl)phenyl]amino}-3,4-dihydropyrido[2,3-b]pyrazin-2(1H)-one]
[1]
  IC50: 57 nM
[2]
  IC50: 5300 nM

## C[C@@H]1C(=O)N(C)c2ccc(Nc3cccc(C(=O)NC4CCN(C)CC4)c3)nc2N1c1ccc(F)cc1 (stereo in doubt) [Example 115, 3-{[(3R)-4-(4-fluorophenyl)-1,3-dimethyl-2-oxo-1,2,3,4-tetrahydropyrido[2,3-b]pyrazin-6-yl]amino}-N-(1-methylpiperidin-4-yl)benzamide]
[1]
  IC50: 706 nM
[2]
  IC50: 379 nM

## C[C@@H]1C(=O)N(C)c2ccc(Nc3cccc(C(=O)NC4CCC(NC5CCN(C)CC5)CC4)c3)nc2N1C1CCOCC1 (stereo partly drawn) [Example 80, 3-{[(3R)-1,3-dimethyl-2-oxo-4-(tetrahydro-2H-pyran-4-yl)-1,2,3,4-tetrahydropyrido[2,3-b]pyrazin-6-yl]amino}-N-{4-[(1-methylpiperidin-4-yl)amino]cyclohexyl} benzamide]
[1]
  IC50: 247 nM
[2]
  IC50: 196 nM

## COc1ccc(Nc2ccc3c(n2)N(C2CCOCC2)[C@H](C)C(=O)N3C)cc1C(=O)NC1CCN(C)CC1 [Example 81, 5-{[(3R)-1,3-dimethyl-2-oxo-4-(tetrahydro-2H-pyran-4-yl)-1,2,3,4-tetrahydropyrido[2,3-b]pyrazin-6-yl]amino}-2-methoxy-N-(1-methylpiperidin-4-yl)benzamide]
[1]
  IC50: 227 nM
[2]
  IC50: 210 nM

## COc1ccc(C(=O)NCCN(C)C)cc1Nc1ccc2c(n1)N(C1CCOCC1)[C@H](C)C(=O)N2C [Example 19, N-2-(Dimethylamino)ethyl-3-{[(3R)-1,3-dimethyl-2-oxo-4-(tetrahydro-2H-pyran-4-yl)-1,2,3,4-tetrahydropyrido[2,3-b]pyrazin-6-yl]amino}-4-methoxybenzamide]
[1]
  IC50: 132 nM
[2]
  IC50: 234 nM

## COCCN1c2nc(Nc3cccc(C(=O)N[C@H]4CC[C@H](N5CCN(CC6CC6)CC5)CC4)c3)ccc2N(C)C(=O)[C@H]1C [Example 101, N-{trans-4-[4-(cyclopropylmethyl)piperazin-1-yl]cyclohexyl}-3-{[(3R)-4-(2-methoxyethyl)-1,3-dimethyl-2-oxo-1,2,3,4-tetrahydropyrido-[2,3-b]pyrazin-6-yl]amino}benzamide]
[1]
  IC50: 195 nM
[2]
  IC50: 617 nM

Source: US20160176867A1, “MODIFIED BET-PROTEIN-INHIBITING DIHYDROQUINOXALINONES AND DIHYDROPYRIDOPYRAZINONES” (BAYER PHARMA AKTIENGESELLSCHAFT, priority 2013, published 2016)
